Data as given in patent US10570122B2, “Compounds with anti-tumoral activity” (AB Science, priority 2015, dated 2020).

Experiments:
BXPC3 = test: CellTiter-Blue cell-based survival/proliferation assay, BXPC3; conditions: Homo sapiens, BXPC-3; BXPC3 pancreas tumor cell line, 48 h
Procedure, shortened: (§1)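 Tenfold compound dilutions (0–10 μM) were added to 1·10^4 cells/well. Plates incubated 48 h at 37 °C. CellTiter-Blue reduction (4 h, 37 °C) was read as fluorescence at 590 nm, background-corrected with a cell-free blank.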

DLD1 = test: CellTiter-Blue cell-based survival/proliferation assay, DLD1; conditions: Homo sapiens, DLD-1; DLD_1 colorectal tumor cell line, 48 h
Procedure, shortened: as §1

ACHN = test: CellTiter-Blue cell-based survival/proliferation assay, ACHN; conditions: Homo sapiens; ACHN kidney tumor cell line, 48 h
Procedure, shortened: as §1

SW579 = test: CellTiter-Blue cell-based survival/proliferation assay, SW579; conditions: Homo sapiens; SW579 head & neck tumor cell line, 48 h
Procedure, shortened: as §1

H1299 = test: CellTiter-Blue cell-based survival/proliferation assay, H1299; conditions: Homo sapiens, NCI-H1299; H1299 lung tumor cell line, 48 h
Procedure, shortened: as §1

HEP2 = test: CellTiter-Blue cell-based survival/proliferation assay, HEP2; conditions: Homo sapiens, HEp-2; HEP2 head & neck tumor cell line, 48 h
Procedure, shortened: as §1

PC3 = test: CellTiter-Blue cell-based survival/proliferation assay, PC3; conditions: Homo sapiens, PC-3; PC3 prostate tumor cell line, 48 h
Procedure, shortened: as §1

OPM2 = test: CellTiter-Blue cell-based survival/proliferation assay, OPM2; conditions: Homo sapiens, OPM-2, Myeloma cell line OPM2, 48 h, read-out: Anti-tumoral activity (measured IC50) OPM2
Procedure, shortened: as §1

[1] = test system: panel of about 34 human tumor cell lines; test: Cell-based proliferation screening on panel of tumor cell lines; conditions: solid tumor cell line, cell line unknown, 48 h, read-out: IC50, solid tumor cell line of column 6 (last section of Table 3)
Procedure, shortened: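 CellTiter-Blue survival assay with 1·10^4 cells/well, each line treated 48 h at 37° C with 1/10 serial dilutions from 0 to 10 μM. Resorufin formed during a 4 h reagent incubation is read by fluorescence at 590 nm. A cell-free blank serves as background.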

KARPAS299 = test: CellTiter-Blue cell-based survival/proliferation assay, KARPAS299; conditions: Homo sapiens, KARPAS-299, Lymphoma cell line KARPAS299, 48 h, read-out: Anti-tumoral activity (measured IC50) KARPAS299
Procedure, shortened: as §1

AGS = test: CellTiter-Blue cell-based survival/proliferation assay, AGS; conditions: Homo sapiens; AGS stomach tumor cell line, 48 h
Procedure, shortened: as §1

A549 = test: CellTiter-Blue cell-based survival/proliferation assay, A549; conditions: Homo sapiens; A549 lung tumor cell line, 48 h
Procedure, shortened: as §1

HL60 = test: CellTiter-Blue cell-based survival/proliferation assay, HL60; conditions: Homo sapiens, HL-60, Leukemia cell line HL60, 48 h, read-out: Anti-tumoral activity (measured IC50) HL60
Procedure, shortened: as §1

CALU6 = test: CellTiter-Blue cell-based survival/proliferation assay, CALU6; conditions: Homo sapiens, Calu-6; CALU6 lung tumor cell line, 48 h
Procedure, shortened: as §1

TOV112D = test: CellTiter-Blue cell-based survival/proliferation assay, TOV112D; conditions: Homo sapiens; TOV112D ovary tumor cell line, 48 h
Procedure, shortened: as §1

PANC1 = test: CellTiter-Blue cell-based survival/proliferation assay, PANC1; conditions: Homo sapiens, PANC-1; PANC_1 pancreas tumor cell line, 48 h
Procedure, shortened: as §1

BT20 = test: CellTiter-Blue cell-based survival/proliferation assay, BT20; conditions: Homo sapiens, BT-20; BT20 breast tumor cell line, 48 h
Procedure, shortened: as §1

A498 = test: CellTiter-Blue cell-based survival/proliferation assay, A498; conditions: Homo sapiens; A498 kidney tumor cell line, 48 h
Procedure, shortened: as §1

HGC27 = test: CellTiter-Blue cell-based survival/proliferation assay, HGC27; conditions: Homo sapiens, HGC-27; HGC27 stomach tumor cell line, 48 h
Procedure, shortened: as §1

MDAMB231 = test: CellTiter-Blue cell-based survival/proliferation assay, MDAMB231; conditions: Homo sapiens, MDA-MB-231; MDAMB231 breast tumor cell line, 48 h
Procedure, shortened: as §1

HCT116 = test: CellTiter-Blue cell-based survival/proliferation assay, HCT116; conditions: Homo sapiens, HCT-116; HCT116 colorectal tumor cell line, 48 h
Procedure, shortened: as §1

DU145 = test: CellTiter-Blue cell-based survival/proliferation assay, DU145; conditions: Homo sapiens, DU-145; DU145 prostate tumor cell line, 48 h
Procedure, shortened: as §1

PLCPRF5 = test: CellTiter-Blue cell-based survival/proliferation assay, PLCPRF5; conditions: Homo sapiens, PLC-PRF-5; PLC_PRF5 liver tumor cell line, 48 h
Procedure, shortened: as §1

CLS354 = test: CellTiter-Blue cell-based survival/proliferation assay, CLS354; conditions: Homo sapiens, CLS-354; CLS354_4 head & neck tumor cell line, 48 h
Procedure, shortened: as §1

MESSA = test: CellTiter-Blue cell-based survival/proliferation assay, MESSA; conditions: Homo sapiens, MES-SA; MESSA ovary tumor cell line, 48 h
Procedure, shortened: as §1

HEPG2 = test: CellTiter-Blue cell-based survival/proliferation assay, HEPG2; conditions: Homo sapiens; HEPG2 liver tumor cell line, 48 h
Procedure, shortened: as §1

REC1 = test: CellTiter-Blue cell-based survival/proliferation assay, REC1; conditions: Homo sapiens, Lymphoma cell line REC1, 48 h, read-out: Anti-tumoral activity (measured IC50) REC1
Procedure, shortened: as §1

HUT78 = test: CellTiter-Blue cell-based survival/proliferation assay, HUT78; conditions: Homo sapiens, Lymphoma cell line HUT78, 48 h, read-out: Anti-tumoral activity (measured IC50) HUT78
Procedure, shortened: as §1

Row | IC50 [1] | Compound | IC50 (BXPC3) | IC50 (DLD1) | IC50 (ACHN) | IC50 (SW579) | IC50 (H1299) | IC50 (HEP2) | IC50 (PC3) | IC50 (OPM2) | IC50 (KARPAS299) | IC50 (AGS) | IC50 (A549) | IC50 (HL60) | IC50 (CALU6) | IC50 (TOV112D) | IC50 (PANC1) | IC50 (BT20) | IC50 (A498) | IC50 (HGC27) | IC50 (MDAMB231) | other results
1 | 100 to 500 nM | CCOCc1cc(C)cc(Nc2ncc(-c3ccc(-n4cccn4)cc3)o2)c1 [Example 021, (3-Ethoxymethyl-5-methyl-phenyl)-[5-(4-pyrazol-1-yl-phenyl)-oxazol-2-yl]-amine] | > 1000 nM | 500 to 1000 nM | > 1000 nM | > 1000 nM | > 1000 nM | > 1000 nM | 500 to 1000 nM | 100 to 500 nM | 100 to 500 nM | > 1000 nM | > 1000 nM | 100 to 500 nM | > 1000 nM | > 1000 nM | > 1000 nM | > 1000 nM | > 1000 nM | > 1000 nM | > 1000 nM | IC50 (HCT116): > 1000 nM; IC50 (DU145): > 1000 nM; IC50 (PLCPRF5): > 1000 nM; IC50 (CLS354): 100 to 500 nM; IC50 (MESSA): > 1000 nM; IC50 (HEPG2): > 1000 nM; IC50 (REC1): 100 to 500 nM; IC50 (HUT78): 500 to 1000 nM
2 | > 1000 nM | CCOCc1ccc(C)c(Nc2ncc(-c3ccc(-n4ccnn4)cc3)o2)c1 [Example 035, (5-Ethoxymethyl-2-methyl-phenyl)-[5-(4-[1,2,3]triazol-1-yl-phenyl)-oxazol-2-yl]-amine] | > 1000 nM | > 1000 nM | > 1000 nM | > 1000 nM | > 1000 nM | > 1000 nM | > 1000 nM | > 1000 nM | 500 to 1000 nM | > 1000 nM | > 1000 nM | > 1000 nM | > 1000 nM | 500 to 1000 nM | > 1000 nM | > 1000 nM | > 1000 nM | > 1000 nM | > 1000 nM | IC50 (HCT116): > 1000 nM; IC50 (DU145): > 1000 nM; IC50 (PLCPRF5): > 1000 nM; IC50 (CLS354): > 1000 nM; IC50 (MESSA): > 1000 nM; IC50 (HEPG2): > 1000 nM; IC50 (REC1): 500 to 1000 nM; IC50 (HUT78): 500 to 1000 nM
3 | > 1000 nM | Cc1ccc(C(=O)NCCN2CCN(C)CC2)cc1Nc1ncc(-c2ccc(-n3cccn3)cc2)o1 [Example 032, 4-Methyl-N-[2-(4-methyl-piperazin-1-yl)-ethyl]-3-[5-(4-pyrazol-1-yl-phenyl)-oxazol-2-ylamino]-benzamide] | > 1000 nM | > 1000 nM | > 1000 nM | > 1000 nM | > 1000 nM | > 1000 nM | > 1000 nM | > 1000 nM | > 1000 nM | > 1000 nM | > 1000 nM | > 1000 nM | > 1000 nM | > 1000 nM | > 1000 nM | > 1000 nM | > 1000 nM | > 1000 nM | > 1000 nM | IC50 (HCT116): > 1000 nM; IC50 (DU145): > 1000 nM; IC50 (PLCPRF5): > 1000 nM; IC50 (CLS354): > 1000 nM; IC50 (MESSA): > 1000 nM; IC50 (HEPG2): > 1000 nM; IC50 (REC1): > 1000 nM; IC50 (HUT78): > 1000 nM
